The values that follow come from PMC5538713, “RORγt and RORα signature genes in human Th17 cells” (PLoS ONE, 2017).

One test concerns CI Channel. Put plainly: Cerep selectivity panel. The class given is binding.
A further test concerns Na+ Channel. Put plainly: Cerep selectivity panel. The class given is binding.
Test [1] relates to human CD4 T cells, IFNγ production. Put plainly: Th1 differentiation assay (IFNγ production). The class given is cell-based. The conditions noted are these: 72 h.
A further test addresses T1, D2S (h) (Homo sapiens, UniProt P14416).
T1 construct: purchased Cerep
Put plainly: Cerep selectivity panel. The test is classed as binding. The settings on record: for inhibition at 1 µM: read-out: % Inhibition at 1µM; for inhibition at 10 µM: read-out: % Inhibition at 10µM. The method, then:
(§1) Supplementary file pone.0181868.s003.docx: S3 Table Selectivity profile of RORγt inverse agonists A, B, C and D. Compounds were evaluated at 1 μM and 10 μM in a panel of assays against 50 receptors, ion channels and transporters (Profile service by Cerep Inc.). (DOCX) Click here for additional data file.
(§2) S3 Table. RORɣt inverse agonists A, B, C and D were evaluated at 1 µM and 10 µM in a panel of assays against 50 receptors, ion channels and transporters (Profile service by Cerep Inc.).

Another test deals with T2, H1 (h) (Homo sapiens, UniProt P35367).
T2 construct: purchased Cerep
Kind of test: Cerep selectivity panel. The test is classed as binding. The conditions noted are these: for inhibition at 10 µM: read-out: % Inhibition at 10µM. The method, then:
as §1, §2

Another test concerns the target T3, OP3 (h) (Homo sapiens, UniProt P35372).
T3 construct: purchased Cerep
Put plainly: Cerep selectivity panel. The class given is binding. The conditions noted are these: for inhibition at 1 µM: read-out: % Inhibition at 1µM; for inhibition at 10 µM: read-out: % Inhibition at 10µM. The procedure:
as §1, §2

For another test, the target named is T4, OP1 (h) (Homo sapiens, UniProt P41143).
T4 construct: purchased Cerep
Put plainly: Cerep selectivity panel. The settings on record: for inhibition at 1 µM: read-out: % Inhibition at 1µM; for inhibition at 10 µM: read-out: % Inhibition at 10µM. The test is classed as binding. The procedure: as §1, §2

For a further test, the target named is T5, Ab1 (h) (Homo sapiens, UniProt P08588).
T5 construct: purchased Cerep
Put plainly: Cerep selectivity panel. The conditions noted are these: for inhibition at 1 µM: read-out: % Inhibition at 1µM; for inhibition at 10 µM: read-out: % Inhibition at 10µM. The test is classed as binding. The procedure: as §1, §2

The target in a further test is T6, AT1 (h) (Homo sapiens, UniProt P30556).
T6 construct: purchased Cerep
T6 sequence (P30556 1-359): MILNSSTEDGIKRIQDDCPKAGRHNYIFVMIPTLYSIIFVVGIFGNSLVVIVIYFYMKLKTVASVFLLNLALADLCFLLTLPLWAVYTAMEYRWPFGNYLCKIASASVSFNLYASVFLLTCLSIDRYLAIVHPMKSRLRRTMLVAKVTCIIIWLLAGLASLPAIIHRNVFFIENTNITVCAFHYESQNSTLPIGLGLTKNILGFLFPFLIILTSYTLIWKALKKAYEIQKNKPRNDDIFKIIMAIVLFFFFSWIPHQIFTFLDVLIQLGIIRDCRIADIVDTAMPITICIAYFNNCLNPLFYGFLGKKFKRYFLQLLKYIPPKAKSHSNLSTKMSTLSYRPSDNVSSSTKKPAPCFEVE
Kind of test: Cerep selectivity panel. The class given is binding. The conditions noted are these: for inhibition at 1 µM: read-out: % Inhibition at 1µM; for inhibition at 10 µM: read-out: % Inhibition at 10µM. The procedure:
as §1, §2

In a further test the target is T7, NE-T (Homo sapiens, UniProt P23975).
T7 construct: purchased Cerep
Kind of test: Cerep selectivity panel. The conditions noted are these: for inhibition at 1 µM: read-out: % Inhibition at 1µM; for inhibition at 10 µM: read-out: % Inhibition at 10µM. The class given is binding. The procedure: as §1, §2

The next test has as its target T8, RORβ LBD (Homo sapiens, UniProt Q92753).
T8 construct: made in house; host or cells: E. coli BL21DE3 GOLD, pET24a
T8 sequence (Q92753 201-452 isoform Q92753-1): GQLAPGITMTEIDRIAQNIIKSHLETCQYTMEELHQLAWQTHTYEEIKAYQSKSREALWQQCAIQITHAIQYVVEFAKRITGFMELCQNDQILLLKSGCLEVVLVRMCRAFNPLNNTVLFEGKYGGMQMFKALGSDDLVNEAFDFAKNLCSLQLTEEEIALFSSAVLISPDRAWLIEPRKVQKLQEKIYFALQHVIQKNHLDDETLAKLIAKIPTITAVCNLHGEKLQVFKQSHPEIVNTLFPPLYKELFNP
Kind of test: ThermoFluor binding assay, RORβ LBD. The method, then: Recombinant human RORγ, RORα and RORβ LBD proteins were prepared for ThermoFlour binding assay. The nucleotide sequences encoding the ligand binding domains (LBD) of human RORγ (Genbank accession no. NP005051, amino acid 237–497), RORα (Genbank accession no. NP599022, amino acid 304–556), and RORβ (Genbank accession no. NP008845, amino acid 201–452) were PCR-amplified and cloned into pET24a (Novagen) for expression in bacteria. All recombinant proteins contained an additional amino acid sequence of […] at the N-terminal of LBD. After transformation of the bacteria strain BL21DE3 GOLD (Agilent) with the plasmids, 10 to 20 L cultures were grown to 1 OD and recombinant protein expression was induced overnight at 16°C with 0.2mM isopropyl-beta-D-thiogalactopyranoside (IPTG) (Corning). […]. His-tagged proteins were collected with Ni-NTA resin (Qiagen) and purified with a HiTrap Q HP column (GE Life Sciences) eluted with a 40 CV gradient of 50-500mM NaCl.
The ThermoFluor® assay was established to measure the change in protein stability upon binding with compounds. 1-Anilinonaphthalene-8-Sulfonic Acid (1,8-ANS) (Invitrogen) was used as a fluorescent dye to label the test proteins. The assay was performed in polypropylene PCR microplates (TF-0384/k, Abgene) with a final assay of 3 μL reaction mixture per well overlaid with 1 μL silicone oil (Sigma-Aldrich). Assay plates were robotically loaded onto a thermostatically controlled PCR-type thermal block and then heated at a ramp-rate of 1°C/min. Fluorescence emission was initiated by continuous illumination with UV light (LC6, Hamamatsu) via fiber optic with a band-pass filter (380–400 nm) and detected with a CCD camera (Sensys, Roper Scientific) filtered to detect signal of 500 ± 25 nm. Reference wells contained recombinant LBD of RORγt, RORα or RORβ alone, and the assay conditions were as follows: 0.065 mg/mL RORγt LBD, 60 μM 1,8-ANS, 100 mM HEPES pH 7.0, 10 mM NaCl, 2.5 mM GSH, 0.002% Tween- 20; 0.1 mg/mL RORα, 70 μM 1,8-ANS, 25 mM HEPES pH 7.0, 50 mM NaCl, 0.001% Tween-20; 0.08 mg/mL RORβ, 60 μM 1,8-ANS, 50 mM HEPES pH 7.0, 100 mM NaCl, 0.001% Tween-20. All 3 assays were performed in the absence and in the presence of 100 μM co-activator peptide SRC1 ([…], England Peptide custom synthesis). The binding affinity of test compounds was estimated as described previously.
Background: In DSF a fluorescence change marks the thermal transition of the protein.

Test [2] has as its system human CD4 T cells, IL-17A production. Kind of test: Th17 differentiation assay (IL-17A production). The test is classed as cell-based. The settings on record: 72 h.
The next test addresses T9, CCR1 (h) (Homo sapiens, UniProt P32246).
T9 construct: purchased Cerep
Kind of test: Cerep selectivity panel. The class given is binding. The procedure:
as §1, §2

The test system of another test is SK+ Ca. Put plainly: Cerep selectivity panel. The test is classed as binding.
The mark [3] stands for this setting: Homo sapiens, CD4+ T, read-out: Th1 Differentiation (IFNγ production) (IC50, nM).
[4] abbreviates: Homo sapiens, CD4+ T, read-out: Th17 Differentiation (IL-17A production) (IC50, nM).
[5] abbreviates: recombinant human LBD, read-out: ThermoFlour Binding Assay (Kd, nM) RORβ.

Where two headings read alike, the source gives them in different places.

T4 sequence (P41143 whole entry): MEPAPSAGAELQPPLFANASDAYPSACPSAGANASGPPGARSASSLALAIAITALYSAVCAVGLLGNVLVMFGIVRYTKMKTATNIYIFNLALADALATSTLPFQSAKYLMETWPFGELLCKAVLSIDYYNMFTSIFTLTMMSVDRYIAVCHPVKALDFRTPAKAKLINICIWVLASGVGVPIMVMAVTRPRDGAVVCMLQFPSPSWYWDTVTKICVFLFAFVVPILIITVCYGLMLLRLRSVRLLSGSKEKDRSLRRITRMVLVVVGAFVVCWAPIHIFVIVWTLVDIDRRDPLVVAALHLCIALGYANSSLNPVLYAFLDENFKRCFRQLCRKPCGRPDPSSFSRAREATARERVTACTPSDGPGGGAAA
T7 sequence (P23975 whole entry): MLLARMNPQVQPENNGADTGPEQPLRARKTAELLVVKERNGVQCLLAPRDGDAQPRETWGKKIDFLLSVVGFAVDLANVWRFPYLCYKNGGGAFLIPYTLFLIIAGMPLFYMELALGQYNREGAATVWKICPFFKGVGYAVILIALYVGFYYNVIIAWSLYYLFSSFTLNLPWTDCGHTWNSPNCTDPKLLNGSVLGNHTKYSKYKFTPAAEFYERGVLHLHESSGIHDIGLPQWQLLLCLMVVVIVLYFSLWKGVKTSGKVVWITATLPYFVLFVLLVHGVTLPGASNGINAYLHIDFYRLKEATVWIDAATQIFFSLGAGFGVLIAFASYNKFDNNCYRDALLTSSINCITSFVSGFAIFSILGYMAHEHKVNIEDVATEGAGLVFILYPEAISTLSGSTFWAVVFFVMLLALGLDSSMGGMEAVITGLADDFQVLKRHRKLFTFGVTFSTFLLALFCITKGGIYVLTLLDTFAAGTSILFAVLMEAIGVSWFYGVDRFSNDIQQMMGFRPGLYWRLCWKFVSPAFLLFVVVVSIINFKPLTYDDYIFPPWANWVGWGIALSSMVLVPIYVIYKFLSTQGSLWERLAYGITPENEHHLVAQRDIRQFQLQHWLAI
T3 sequence (P35372 whole entry): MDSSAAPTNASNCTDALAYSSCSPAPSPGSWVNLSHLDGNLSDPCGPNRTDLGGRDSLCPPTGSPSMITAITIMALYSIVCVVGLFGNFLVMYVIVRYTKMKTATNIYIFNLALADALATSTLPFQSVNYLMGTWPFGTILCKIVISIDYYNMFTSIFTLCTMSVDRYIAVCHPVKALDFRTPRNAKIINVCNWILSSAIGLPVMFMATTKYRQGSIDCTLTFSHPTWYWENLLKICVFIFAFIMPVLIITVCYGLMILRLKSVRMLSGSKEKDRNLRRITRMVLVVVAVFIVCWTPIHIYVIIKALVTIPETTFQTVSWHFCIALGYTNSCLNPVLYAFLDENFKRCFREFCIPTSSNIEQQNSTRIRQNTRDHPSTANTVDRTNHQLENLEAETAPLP
T1 sequence (P14416 1-414 isoform P14416-2): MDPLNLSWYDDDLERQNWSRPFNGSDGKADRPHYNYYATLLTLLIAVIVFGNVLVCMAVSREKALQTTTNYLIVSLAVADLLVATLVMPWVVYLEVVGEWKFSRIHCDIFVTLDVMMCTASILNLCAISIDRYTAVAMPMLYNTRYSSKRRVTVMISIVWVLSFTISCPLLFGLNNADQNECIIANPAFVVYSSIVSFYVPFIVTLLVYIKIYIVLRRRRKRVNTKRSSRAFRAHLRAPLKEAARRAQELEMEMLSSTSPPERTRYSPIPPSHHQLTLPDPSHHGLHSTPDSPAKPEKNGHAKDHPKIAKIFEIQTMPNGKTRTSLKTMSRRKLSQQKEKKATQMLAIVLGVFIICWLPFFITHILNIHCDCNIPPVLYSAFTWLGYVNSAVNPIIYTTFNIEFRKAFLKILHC
T2 sequence (P35367 whole entry): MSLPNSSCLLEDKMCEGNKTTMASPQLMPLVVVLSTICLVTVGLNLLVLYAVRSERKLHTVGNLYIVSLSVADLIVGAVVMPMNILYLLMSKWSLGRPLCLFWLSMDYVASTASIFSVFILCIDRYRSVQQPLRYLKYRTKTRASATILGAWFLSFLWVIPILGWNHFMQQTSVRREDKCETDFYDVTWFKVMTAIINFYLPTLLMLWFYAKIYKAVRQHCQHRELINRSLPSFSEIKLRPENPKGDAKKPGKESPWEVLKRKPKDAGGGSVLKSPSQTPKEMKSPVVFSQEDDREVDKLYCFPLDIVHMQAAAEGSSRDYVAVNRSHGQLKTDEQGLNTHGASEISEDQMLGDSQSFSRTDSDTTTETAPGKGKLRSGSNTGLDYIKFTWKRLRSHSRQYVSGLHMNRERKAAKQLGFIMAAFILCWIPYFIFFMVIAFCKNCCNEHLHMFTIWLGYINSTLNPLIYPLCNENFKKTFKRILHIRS
T5 sequence (P08588 whole entry): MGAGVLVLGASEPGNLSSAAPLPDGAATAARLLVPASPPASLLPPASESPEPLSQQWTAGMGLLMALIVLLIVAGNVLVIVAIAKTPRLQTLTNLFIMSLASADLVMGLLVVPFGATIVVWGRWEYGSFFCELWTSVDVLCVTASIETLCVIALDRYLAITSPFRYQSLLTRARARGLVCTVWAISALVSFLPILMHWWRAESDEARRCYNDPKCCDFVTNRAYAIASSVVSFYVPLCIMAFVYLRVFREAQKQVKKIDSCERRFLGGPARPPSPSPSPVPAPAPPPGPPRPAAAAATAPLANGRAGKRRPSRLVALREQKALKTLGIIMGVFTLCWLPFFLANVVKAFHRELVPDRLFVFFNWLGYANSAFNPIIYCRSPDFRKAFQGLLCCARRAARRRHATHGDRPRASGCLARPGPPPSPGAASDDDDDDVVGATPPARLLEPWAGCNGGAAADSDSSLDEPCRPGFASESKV
T9 sequence (P32246 whole entry): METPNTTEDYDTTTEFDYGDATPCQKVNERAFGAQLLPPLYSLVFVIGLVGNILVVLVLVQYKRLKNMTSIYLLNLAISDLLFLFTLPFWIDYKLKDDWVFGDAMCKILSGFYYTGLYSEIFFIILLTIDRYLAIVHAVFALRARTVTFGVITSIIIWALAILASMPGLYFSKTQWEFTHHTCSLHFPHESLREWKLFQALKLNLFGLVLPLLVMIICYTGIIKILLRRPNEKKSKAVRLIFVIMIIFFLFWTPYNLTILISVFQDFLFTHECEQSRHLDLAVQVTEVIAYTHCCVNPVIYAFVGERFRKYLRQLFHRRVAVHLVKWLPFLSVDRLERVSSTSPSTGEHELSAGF

Consider `COc1nc2ccc([C@](O)(c3ccc(Cl)cc3)c3cncn3C)cc2c(Cl)c1Cc1ccc(-n2cccn2)cc1` [B], for which, in the test on CI Channel, the % Inhibition (as a rule, how much of the control response was suppressed) at 1µM amounted to 24%. Besides, the “% Inhibition at 10µM” value in the test on CI Channel is given as 66%; in the test with Na+ Channel, 3%. Moreover, the IC50 (in general, the concentration at which inhibition is half-maximal) in test [1] (setting [3]) is greater than 240 nM; in test [2] (setting [4]), 84.5 nM. The inhibition – broadly, how much of the control response was suppressed – at 1 µM at D2S (h) worked out at 7%; on OP3 (h), 3%; on OP1 (h), 6%; at Ab1 (h) it was 0%; on AT1 (h) it was 1%; at NE-T, 21%. The inhibition at 10 µM on H1 (h) amounted to 2%; on OP3 (h), 3%; at OP1 (h), 2%; at Ab1 (h) it was 2%; on AT1 (h), 16%; at NE-T, 38%. The Kd – broadly, the constant that tells how readily two partners part at equilibrium – at RORβ LBD is greater than 29900 nM.
As to `COc1nc2ccc([C@@](O)(c3ccccc3)C3CCN(C(C)=O)CC3)cc2c(Cl)c1Cc1ccc(-n2cccn2)cc1` [C], the results for the “% Inhibition at 1µM” value in the test with CI Channel and in the test on SK+ Ca (1 µM) were 16% and 1%, respectively. Moreover, the “% Inhibition at 10µM” value is 45% in the test on CI Channel and 5% with SK+ Ca. Besides, the IC50 in test [1] (setting [3]) was greater than 240 nM; in test [2] (setting [4]), 18.3 nM. The inhibition at 1 µM at D2S (h) turned out to be 10%; on CCR1 (h) (1 µM) it was 17%; on H1 (h) (read-out: % Inhibition at 1µM), 10%; on OP3 (h), 2%; on OP1 (h), 9%; at NE-T, 19%. The inhibition at 10 µM at OP3 (h) is 15%; at OP1 (h), 11%; at AT1 (h), 11%; on NE-T, 38%. Also, the Kd on RORβ LBD (setting [5]) is greater than 70000 nM.
As to `COc1nc2ccc([C@@](O)(c3ccc(C)nc3C)c3cnnn3C)cc2c(Cl)c1Cc1ccc(C(F)(F)F)cc1` [compound A], the results for the “% Inhibition at 1µM” value in the test with CI Channel and in the test with Na+ Channel (1 µM) were 26% and 20%, respectively. Also, the “% Inhibition at 10µM” value in the test with CI Channel is 87%; in the test on Na+ Channel, 45%; with SK+ Ca, 1%. The IC50 in test [1] (human CD4 T cells, 3 days, read-out: Th1 Differentiation (IFNγ production) (IC50)) was greater than 240 nM; in test [2] (human CD4 T cells, 3 days, read-out: Th17 Differentiation (IL-17A production) (IC50)), 3.7 nM. Moreover, the inhibition at 1 µM was 12% at D2S (h) (D2S (h), 1 µM); 9% at OP1 (h) (OP1 (h), 1 µM); 0% on Ab1 (h) (Ab1 (h), 1 µM); 0% on AT1 (h) (AT1 (h), 1 µM); 44% at NE-T (NE-T, 1 µM). The inhibition at 10 µM turned out to be 70% on D2S (h) (D2S (h), 10 µM); 8% on H1 (h) (H1 (h), 10 µM); 17% on OP3 (h) (OP3 (h), 10 µM); 27% on OP1 (h) (OP1 (h), 10 µM); 10% on Ab1 (h) (Ab1 (h), 10 µM); 32% on AT1 (h) (AT1 (h), 10 µM). Besides, the inhibition at 10 µM on NE-T (NE-T, 10 µM) is 86%. Also, the equilibrium dissociation constant (Kd) at RORβ LBD (setting [5]) was found to be 4940 nM.
As to `CN(C)c1nc2ccc(C(O)(c3ccncc3)c3cncn3C)cc2c(Cl)c1-c1ccccc1` (stereo not shown) [compound D], the IC50 in [1] (setting [3]) is greater than 240 nM; in test [2] (setting [4]), 22.2 nM. The inhibition at 1 µM at D2S (h) was determined as 7%; at OP3 (h) it was 3%; on Ab1 (h) it was 3%; on NE-T, 5%. Also, the inhibition at 10 µM on D2S (h) turned out to be 25%; on CCR1 (h) (10 µM), 6%; on H1 (h), 27%; at OP3 (h) it was 30%; at OP1 (h), 36%; on Ab1 (h), 2%. In addition, the inhibition at 10 µM is 28% on AT1 (h) and 76% on NE-T. Besides, the Kd at RORβ LBD came to 1240 nM.
